In US20180235936A1, “CANCER TREATMENT METHODS” (University of Notre Dame du Lac, priority 2017, published 2018):
Entries after “also recorded” stand apart in the source; their conditions may differ.

Assays:
Snai1 mRNA = experiment: Snai1 expression by RT-PCR in AsPC1 cells co-cultured with GW4869-treated CAFs; format: cell-based, human; conditions: exosome secretion from PCAFs inhibited by GW4869
Description: (§1) (FIG. 8A) AsPC1 cells were grown for 5 days in AsPC1-conditioned media (AsPC1/AsPC1), CAF1-conditioned media (CAF1/AsPC1) or CAF1-conditioned media depleted of exosomes (CAF1-ED/AsPC1) and then treated with 111M GEM for 3 days and live cells were counted. (FIG. 8B) CAF1s were treated with 20 gm GW4869 or DMSO along with 111M gemcitabine or PBS for 3 days. Exosomes in media were collected, dyed with CFSE, and quantified. (FIG. 8C) AsPC1 cells were co-cultured with AsPC1 cells, CAFs, GW4869-treated CAF1s, DMEM alone (Blank/AsPC1), or GW4869 in DMEM (Blank+GW4869) for 6 days then treated during co-culture with 111M gemcitabine for 3 days. Live co-cultured AsPC1 cells at the bottom of the plate were counted. (FIG. 8D) Snai1 expression was measured via RT-PCR in AsPC1 cells co-cultured with untreated CAFs (CAF-NT/AsPC1) or GW4869-treated CAFs (CAF-GW/AsPC1). (FIG. 8E) L3.6 cells were cultured in CAF1-conditioned (CAF1/L3.6) media or CAF1-conditioned media depleted of exosomes (CAF1-ED/L3.6). miR146a expression was measured via RT-PCR. **p-value<0.01.

[1] = test system: pancreatic cancer epithelial cells; experiment: Scratch migration assay of pancreatic cancer epithelial cells; format: cell-based, human; set-up: dose or concentration left out as unconfirmed; conditions: GW4869, serum-free media, three days; vs DMSO
Source text: FIG. 20 illustrates a graph of the results from pancreatic cancer epithelial cells being grown to full confluency and placed in serum-free media to prevent cell proliferation. A scratch was made down to center of the plate to create a cell free zone for migration. Cells were then given DMSO as a control or 2011M GW4869. Images were taken each day for three days and distance of cell migration was quantified using ImageJ.

[2] = test system: pancreatic cancer epithelial cells; experiment: Direct GW4869 treatment of pancreatic cancer epithelial cells followed by gemcitabine; percent live cells (trypan blue); format: cell-based, human; set-up: dose or concentration left out as unconfirmed; conditions: GW4869 for one day then gemcitabine for three days; vs DMSO
Source text: FIG. 19 illustrates a graph of the results from pancreatic cancer epithelial cells being treated with DMSO as a control or 2011M GW4869 for one day then treated with gemcitabine for three days. Live and dead cells were quantified using an automated cell counter and trypan blue staining. Percent live cells was quantified.

[3] = test system: pancreatic cancer-associated fibroblasts (CAF1); experiment: Exosome release from CAF1s treated with GW4869, exosomes dyed with CFSE and quantified; format: cell-based, human; conditions: CAFs; FIG. 8B / FIG. 12
Description: as §1

microRNA-92a = microRNA-92a expression by RT-PCR in AsPC1 cells co-cultured with GW4869-treated CAFs; format: cell-based, human; conditions: PCAFs treated with GW4869 vs DMSO
Source text: FIG. 17A illustrates a graph of the results from pancreatic cancer epithelial cells (AsPC1) grown in PCAF-conditioned media; the cells expressed higher levels of microRNA-92a compared to control media, as established via RTPCR.

[4] = test system: AsPC1 cells and CAF1 cells tumors; experiment: Subcutaneous AsPC1 + CAF1 tumor growth in NOD/SCID mice; format: in vivo; conditions: intraperitoneally twice weekly for two weeks
Description: FIGS. 10A-B illustrate graphs of NOD/SCID mice that were subcutaneously implanted with one million AsPC1 cells and 200,000 CAF1 cells. Two weeks post implantation mice were treated intraperitoneally with DMSO+PBS, DMSO+gemcitabine (GEM), or PBS+GW4869 twice weekly for two weeks. (FIG. 10A) Tumor growth over the course of the ten-day post drug treatment. (FIG. 10B) Change in tumor volume from first day of drug treatment to 10 days post initial drug treatment. *p-value<0.05. NS (not significant).
Additionally, it should be appreciated that dosages can be determined as described herein. In one embodiment, the dosage of pharmaceutical composition depends on the drug itself, its efficacy, and its toxicity. As an exemplary embodiment, 2-2.5 gg GW4869 per gram mouse body weight can be intraperitoneally injected into mice twice weekly for two weeks to achieve therapeutic results.

[5] = test system: pancreatic epithelial cancer cells (AsPC1) co-cultured with CAFs; experiment: Co-culture of pancreatic epithelial cancer cells with GW4869-treated CAFs, then gemcitabine; live cell count; format: cell-based, human; conditions: GW4869-treated CAFs (20 μM), gemcitabine for three days during co-culture
Description: as §1
The bottom co-cultured epithelial cells were then treated with gemcitabine for three days during co-culture. Live co-cultured epithelial cells at the bottom of the plate were quantified using an automated cell counter. *p-value<0.05; **p-value <0.01. NS (not significant).

PTEN = PTEN expression by RT-PCR in tumors extracted from treated NOD/SCID mice; format: in vivo; conditions: intraperitoneally twice weekly for two weeks; compared to control
Description: FIG. 16 illustrates a graph of the results from NOD/SCID mice being subcutaneously implanted with one million AsPC1 cells and 200,000 CAF1 cells. Two weeks post implantation mice were treated intraperitoneally with DMSO+PBS, DMSO+gemcitabine, PBS+GW4869, or gemcitabine+GW4869 twice weekly for two weeks. Tumors were extracted for RNA and PTEN expression within tumor samples was quantified via RT-PCR.

[6] = test system: pancreatic cancer-associated fibroblasts (CAF1); experiment: Exosome secretion from cells during chemotherapy treatment, exosomes isolated from conditioned media and quantified; format: cell-based, human; conditions: most prominently from PCAFs; 4 days treatment; vs untreated
Description: (FIG. 4A) CAF1s were left untreated (NT) or treated with 111M gem (GT) for 4 days. Exosomes were isolated from conditioned cell media, and protein lysates were used to perform a western blot for CD81 and beta-actin (left). Isolated exosomes were examined for size and structure via transmission electron microscopy (right). (FIG. 4B) CAF1 cells transduced with a GFP-CD63 lentivirus (GFP-CD63-CAF1s) were treated with luM gemcitabine (GT) or left untreated (NT) and fluorescence was analyzed via microscopy. (FIG. 4C) Total corrected cell fluorescence of GFP-CD63-CAF1 cells was quantified using ImageJ. (FIG. 4D) Cells were treated with 11.1M gemcitabine (Fibroblasts and PANC1), 10 nM gemcitabine (L3.6), or left untreated for 4 days (NT), and exosomes were collected and quantified. Scale bar, 200 Em. *pvalue<0.05; **p-value<0.01.
FIG. 5 illustrates a graph of fold change in exosome secretion per cell. CAF1 cells were plated at 500,000 cells/flask and left untreated (control), treated with 111M gemcitabine, or 10 nM Nab-Paclitaxel for 4 days. Live cells were counted. Exosomes were isolated from conditioned-media and quantified. *p-value<0.05;**p-value<0.01.

[7] = test system: pancreatic ductal adenocarcinoma (PDAC); conditions: adjuvant gemcitabine, observed cohort; cited from earlier work
Snai1 and miR-146a = experiment: RT-PCR of Snai1 and miR-146a in CAF1s and CAF1 exosomes during gemcitabine treatment; format: cell-based, human
Description: (FIG. 11A) RT-PCR. miR-146a and Snai1 levels were altered in CAF1s during 1 μM GEM treatment (GT) (3 days) compared to untreated control (NT). (FIG. 11B) RT-PCR. CAF1s were treated with Snai1-siRNA, and Snai1 and miR-146a expression was measured compared to negative siRNA control treated CAFs. (FIG. 11C) Exosomes from untreated and 1 μM GEM-treated CAF1s were isolated and Snai1 mRNA and miR-146a within CAF1 exosomes was quantified via RT-PCR using relative Ct values. (FIG. 11D-E) L3.6 cells were treated with GT-CAF1 exosomes for 6 days (GTCAF1/L3.6) or left untreated (L3.6 control). AsPC1 cells were treated with GT-CAF1 exosomes for 6 days (GT-CAF1/AsPC1) or left untreated (AsPC1 control). Snai1 (FIG. 11D) and miR-146a (FIG. 11E) levels were quantified in recipient cells via RT-PCR. *p-value<0.05; **p-value<0.01.

[8] = test system: PCAF extracellular vesicle microRNAs; experiment: MicroRNA-Seq of extracellular vesicles from gemcitabine-treated versus PBS-treated PCAFs; format: cell-based, human; conditions: normalized to total RNA
Source text: While Snai1 and miR-146a may play an important role in promoting chemoresistance of PECCs, other potential mechanisms exist in which PCAF exosomes may increase chemoresistance. For example, by treating PCAFs with PBS as a control or gemcitabine, collecting their secreted extracellular vesicles, lysing them, collecting the microRNA within, and quantifying the microRNAs, the role of microRNAs is made clearer. […] [table]

[9] = 1 μM GEM treatment (3 days) vs untreated

For `O=C(/C=C/c1ccc(/C=C/C(=O)Nc2ccc(C3=NCCN3)cc2)cc1)Nc1ccc(C2=NCCN2)cc1` [GW4869], the “cellular level of Snai1 mRNA within co-cultured PECCs” value (Snai1 mRNA) was “decreased”, the “cell migration of PECCs” value [1] was “reduced cell migration” and the “chemoresistance of PECCs treated directly” value [2] was “reduced chemoresistance”. For the same compound, the exosome release [3] was “suppresses exosome release”, the “expression of miR-92a within co-cultured PECCs” value (microRNA-92a) was “reduced expression; also recorded: decreased” and the tumor growth [4] was “reduced tumor growth”. For the same compound, the “chemoresistance of co-cultured PECCs” value [5] was “reduced the chemoresistance”.
For `Nc1ccn([C@@H]2O[C@H](CO)[C@@H](O)C2(F)F)c(=O)n1` [gemcitabine], the “PTEN expression within the tumors” value (PTEN) is given as “decreased”, the “secretion of exosomes from cells” value [6] is given as “increases secretion of exosomes” and the “patients eventually showing tumor recurrence” value [7] is given as 74%. The “Snai1 level in CAFs” value (Snai1 and miR-146a; [9]) was “upregulation”, the “miR-146a level in CAFs” value (Snai1 and miR-146a; [9]) was “upregulation” and the “level of Snai1 mRNA in exosomes secreted from PCAFs” value (Snai1 and miR-146a; 1 μM GEM-treated vs untreated) was “higher”. The “level of miR-146a in exosomes secreted from PCAFs” value (Snai1 and miR-146a; 1 μM GEM-treated vs untreated) was “higher”, the “Fold Change (GEM vs. NT) of hsa-m1R-221-3p in extracellular vesicles” value [8] was 4.325 and the “Fold Change (GEM vs. NT) of hsa-miR-21-5p in extracellular vesicles” value [8] was 2.531. The “Fold Change (GEM vs. NT) of hsa-miR-92a-3p in extracellular vesicles” value [8] was 4.66, the “Fold Change (GEM vs. NT) of hsa-miR-181a-5p in extracellular vesicles” value [8] was 3.509 and the “Fold Change (GEM vs. NT) of hsa-miR-222-3p in extracellular vesicles” value [8] was 2.649.
